Marks after values point to notes of the source that are not given here.
Experiments:
[1] = test system: polymicrobial panel (six bacterial lines); assay: Antimicrobial activity against polymicrobial panel; type: cell-based
MS S. aureus = conditions: 24 hours, Gram Positive
B. subtilis (168) = conditions: 24 hours, Gram Positive
[2] = test system: human lung epithelium (NL20); conditions: read-out: Healthy (IC50, μM) NL20; 48 hours treatment, MTT
[3] = test system: cleaved caspase 3 in OVCAR-3 cells; assay: Western blot of cleaved caspase 3; type: cell-based, human; conditions: 1× and 2× IC50; activation at 48 hours
Procedure: For western blots, OVCAR-3 cells were first seeded at 2.5×10^5 cells/well in a 6 well plate and allowed to adhere overnight. Cells were then treated in 5% FBS media with 1×IC50 and 2×IC50, with untreated controls of media alone. Following 2 or 48 hours of treatment, the whole-cell protein lysates were prepared in RIPA buffer (50 mM Tris.NaOH at pH 7.4, 150 mM NaCl, 1% IGEPAL-CA630 [octylphenoxy poly(ethyleneoxy)ethanol], 0.5% sodium deoxycholate, 0.1% SDS, 2 mM EDTA, protease/phosphatase inhibitors) by first scraping the bottom of the well and subsequently briefly sonicated. The lysates were centrifuged to clear cellular debris, separated by 12% SDS-PAGE, and transferred to a 0.2 μm Nitrocellulose Membrane using the Bio-Rad Trans-Blot Turbo transfer machine (Bio-Rad, Hercules, Calif., USA) according to the manufacturer's protocols. The blot was incubated in 5% Immunoanalytical Grade Non-fat Dry Milk for 1 hour, followed by incubation with antibodies against cleaved caspase-3 (1:1000) or actin (1:1000) at 4° C. for 16 hours. The blots were then incubated with 1:2000 dilution in 1×BSA of anti-mouse or anti-rabbit antibodies for 1 hour before washing with TBST three times for 15 min. and developing using Pierce ECL system according to the manufacturer's protocol.

[4] = test system: human umbilical vein endothelial cells (HUVEC); conditions: read-out: Healthy (IC50, μM) HUVEC; 48 hours treatment, MTT
OVCAR-3 cells [5] = assay: TMRE-staining flow cytometry (mitochondrial transmembrane potential); type: cell-based, human; conditions: 48 hour incubation, varying concentrations
Procedure: (5 μM). Cells were incubated for 30 min. with 200 nM TMRE, washed twice with PBS, and analyzed for fluorescence by flow cytometry on a BD […] (BD Biosciences, Franklin Lakes, N.J.).

OVCAR-3 cells [6] = conditions: read-out: IC50, nuclei-counting assay; OVCAR-3, Hoechst nuclei counting

## H-KRWHWWRRHWVVW-NH2 [MAD1]
[1]
  antimicrobial activity against polymicrobial panel: bactericidal activity
MS S. aureus
  MIC (μM) MS S. aureus: >80^a μM
B. subtilis (168)
  MIC (μM) B. subtilis (168): 0.2 µM
[2]
  IC50: 76.9 µM
[3]
  cleaved caspase 3 (western blot): presence of cleaved caspase 3
[4]
  IC50: > 100 µM
OVCAR-3 cells [5]
  mitochondrial integrity (TMRE fluorescence): generally unchanged
OVCAR-3 cells [6]
  IC50: 3.3 µM

From patent publication US11571454B2, “Anticancer peptides that synergistically enhance chemotherapeutic potency” (The Penn State Research Foundation, priority 2017, dated 2023)
